Source: US4985447A, “Certain benzoquinones, naphthoquinones and derivatives thereof which exhibit thromboxane A2 synthetase inhibition or receptor antagonism and the like” (Takeda Chemical Industries, Ltd., priority 1986, dated 1991)

Legend:
5-lipoxygenase = molecular target: T1, 5-lipoxygenase (Rattus norvegicus, UniProt P12527); experiment: Inhibition of 5-lipoxygenase (production of 5-HETE in RBL-1 cells); format: cell-based, rat (RBL-1, rat basophilic leukemia cells); settings: for inhibition at 1 µM: 10^-6 M; for inhibition at 0.1 µM: 10^-7 M
T1 construct: endogenous in cells; host or cells: RBL-1 cells (rat basophilic leukemia)
T1 sequence (P12527 1-673): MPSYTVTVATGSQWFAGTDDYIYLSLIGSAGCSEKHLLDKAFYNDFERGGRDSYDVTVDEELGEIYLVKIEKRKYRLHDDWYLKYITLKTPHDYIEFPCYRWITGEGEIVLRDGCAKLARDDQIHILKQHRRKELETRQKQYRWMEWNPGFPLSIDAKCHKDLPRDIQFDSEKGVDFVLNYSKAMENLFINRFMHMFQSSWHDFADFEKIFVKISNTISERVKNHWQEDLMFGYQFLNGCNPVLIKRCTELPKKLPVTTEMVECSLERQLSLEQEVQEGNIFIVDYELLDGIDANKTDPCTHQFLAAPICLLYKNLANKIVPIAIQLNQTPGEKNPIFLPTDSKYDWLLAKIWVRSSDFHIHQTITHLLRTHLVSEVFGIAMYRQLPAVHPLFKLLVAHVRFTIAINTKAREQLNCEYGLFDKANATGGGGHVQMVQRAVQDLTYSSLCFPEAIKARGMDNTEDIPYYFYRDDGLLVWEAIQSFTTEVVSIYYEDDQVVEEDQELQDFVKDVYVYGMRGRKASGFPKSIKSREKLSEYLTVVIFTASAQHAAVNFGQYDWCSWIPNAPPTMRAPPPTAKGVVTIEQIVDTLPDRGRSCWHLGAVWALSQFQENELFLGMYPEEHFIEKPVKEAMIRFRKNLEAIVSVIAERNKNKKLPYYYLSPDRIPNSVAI
Procedure: Inhibition of 5-lipoxygenase
10^7 RBL-1 cells (rat basophilic leukemia cells) were suspended in 0.5 ml of MCM (mast cell medium ). To the suspension was subsequently added a solution consisting of 0.5 ml of MCM, 50 μg of arachidonic acid, 10 μg of A-23187 (calcium ionophore, Eli Lilly), and a solution of a quinone compound in ethanol at the final concentration of 1 μM, 0.1 μM, 0.01 μM or 0.001 μM of the test compound was added and allowed to react at 37° C. for 20 minutes. After the reaction, 4 ml of ethanol containing 1,4-dimethoxy-2-methyl-3-(3-methoxypropyl)naphthalene as an internal standard were added, mixed well by shaking, and kept at room temperature for 10 minutes. Then the mixture was centrifuged for 10 minutes (2000 rpm), and the supernatant was separated. The supernatant was concentrated to dryness under reduced pressure. To the concentrate, 0.5 ml of 60% aqueous methanol was added. One hundred μl of this solution was subjected to high performance liquid chromatography for quantitative analysis of 5-HETE (5-hydroxyeicosatetraenoic acid). The amount of 5-HETE was analyzed by measurement of the absorbance at […] with a UV absorption monitor.
Inhibitory effect (IE) of production of 5-HETE is expressed by (1-b/a)×100, wherein a is the peak height or the area corrected with the peak due to the internal standard in the absence of the quinone compound, and b is the peak hight or peak area corrected with the peak due to the internal standard in the presence of the quinone compound.

[1] = tested on: lipid peroxide in rat brain homogenate; experiment: Inhibition of production of lipid peroxide in rat brain homogenate; format: biochemical, rat (Sprague-Dawley)
Procedure: Procedure: Sprague-Dawley rats (male, 9-15 weeks old) anesthetized with pentobarbital (50 mg/kg, intraperitoneal administration) were venesected and the brain tissue was resected. The tissue was homogenized in phosphate buffer (pH 7.4), and used as a 5% homogenate (on weight basis). The brain homogenate was allowed to react at 37° C. for 1 hour, and the amount of lipid peroxide produced was determined with the thiobarbituric acid method according to the method of Okawa et al. (Analytical Biochem 95 551, 1979). The drug was added to the 5% homogenate before the reaction at 37° C. for 1 hour so that the final concentration might be 5×10^-7 or 10^-6 M. Inhibition of production of lipid peroxide was expressed as the rate of inhibition in % of the amount produced in the solvent(DMSO)-treated group.

CC1=C(C)C(=O)C(C(C)c2cccnc2)=C(C)C1=O (centres unmarked) [Compound No. 1, 3,5,6-trimethyl-2-[1-(3-pyridyl)ethyl]-1,4-benzoquinone]
inhibition at 1 µM (5-lipoxygenase): 84%
inhibition at 0.1 µM (5-lipoxygenase): 46%
Inhibition of production of lipid peroxide in rat brain homogenate ([1]; 5 × 10^-7 M): 6%
Inhibition of production of lipid peroxide in rat brain homogenate ([1]; 10^-6 M): 90%

CC1=C(C)C(=O)C(C(CCCCCC(=O)O)c2cccnc2)=C(C)C1=O (centres unmarked) [Compound No. 13, 7-(3-pyridyl)-7-(3,5,6-trimethyl-1,4-benzoquinon-2-yl)heptanoic acid]
inhibition at 1 µM (5-lipoxygenase): 64%
inhibition at 0.1 µM (5-lipoxygenase): 16%
Inhibition of production of lipid peroxide in rat brain homogenate ([1]; 5 × 10^-7 M): 20%
Inhibition of production of lipid peroxide in rat brain homogenate ([1]; 10^-6 M): 84%
